The values that follow come from patent publication US20030170642A1, “Identification of cellular targets for biologically active molecules” (IRM, LLC, priority 2001, published 2003).

Assay [1] has as its system NF-κB. The experiment in a line: Jurkat NF-κB-luciferase reporter cell assay, TNF-alpha stimulation. It counts as cell-based. To be noted: Jurkat reporter cells. As to the method: Alternatively, Jurkat NF-κB reporter cells were seeded at 30,000 cells per/ml in 384-well microtiter plates. Recombinant retroviruses encoding wild-type IKK-beta or NF-κB p65 were generated and used to transduce Jurkat reporter cells. Untransduced cells were treated with 1, 2 or 5 mM salicylate for 30 minutes prior to stimulation with TNF-alpha (10 ng/ml).
Cell Plating: Jurkat NF-κB reporter cells were seeded at 5 μL per well in Greiner 1536-well micro-plates using the Cartesian synQUAD. Settings for the 24,000 step motor were such that a 100 μL syringe would provide a volume per step of 4.2 nL; timing was controlled by a master dispenser solenoids and stepper motors which moved the stage and controlled the syringe pumps. The result was extremely rapid “on-the-fly” dispensing, similar to an inkjet printer. […]
Compound addition: Four Falcon 384-well plates containing compounds (Aldrich) dissolved in dimethylsulfoxide (DMSO) to a final concentration of 1 mM (excepting the last two columns which were just DMSO) were transferred to the Jurkat reporter cells. […] Coefficients of variation (CVs) before and after compound addition was determined by transferring liquid from a FITC solution bath to 384 well plates and read on the LJL Acquest in fluorescence modality.
For orientation: A reporter such as luciferase makes a cellular process visible.

The test system of assay [2] is NF-κB. Briefly: HEK293 NF-κB-luciferase reporter gene assay, TNF-alpha stimulation.
Experimental: Day 7: HEK293 and Jurkat NF-κB reporter cells were plated and treated with a dose-response of human TNF-alpha for 2 to 24 hours, lysed and treated with Bright-Glo luciferase reagent (Promega) and luminescence measured with the LJL Acquest luminometer.
(§1) HEK293T NF-κB reporter cells were seeded at 7000 cells/well in 384-well plates in triplicate. Eighteen hours later, cells were treated with TNF-alpha (10 ng/mL) in the absence of or presence of 1, 2 or 5 mM sodium salicylate. Cells in other wells were transfected with mammalian expression vectors encoding wild-type human IKK-beta (50 ng) or NF-κB p65 (10 ng) by calcium phosphate. Eight hours post transfection, fresh medium was added with 1, 2 or 5 mM sodium salicylate and incubated for an additional 16 hours. At 24 hours post TNF addition or post transfection, cells were lysed and incubated with Bright-Glo (Promega) and Relative Light Units (RLUs) were determined using the LJL Acquest luminometer.
Stimulus and detection addition: After 30 minute incubation with compounds, a solution of TNF-alpha (Sigma) diluted to 60 ng/ml and transferred to cells using the Cartesian synQUAD such that 1 μL of stimulus was added per well to a final dilution of approximately 10 ng/ml final. […] Cells were incubated with the Alamar Blue for three hours then read on the LJL Acquest in fluorescence mode at 100,000 us/well. […] Precisely five minutes after addition of Bright-Glo, the cell plate was read in luminescence mode in the LJL Acquest at 100,000 us per well. Wells treated with compounds in which fluorescent signals were >90% of the mean across the plate, and below 50% of the mean across the plate for luminescence were identified and compounds hit picked for future studies. […] IC50 values were also determined in the HEK293 NF-κB reporter gene assay in the same manner.
(§2) HEK293 NF-κB reporter cells were plated in 96-well plates at 28,000 cells/well in D'MEM media containing 10% FBS, pen-strep antibiotics and 1 mM glutamine. […] After 24 hours, samples were treated with Bright-Glo and analyzed using the LJL Acquest luminometer.
For assay [3], the system named is NF-κB. The following applies: Jurkat reporter cells, stable retroviral over-expression, 1, 2 or 5 mM. As to the method: Alternatively, Jurkat NF-κB reporter cells were seeded at 30,000 cells per/ml in 384-well microtiter plates. Recombinant retroviruses encoding wild-type IKK-beta or NF-κB p65 were generated and used to transduce Jurkat reporter cells. Untransduced cells were treated with 1, 2 or 5 mM salicylate for 30 minutes prior to stimulation with TNF-alpha (10 ng/ml). For transduced cells, 4 hours post retroviral incubation, cells were treated with either 0, 1, 2 or 5 mM salicylic acid.

The test system of assay [4] is NF-κB. Briefly: In cellulo competition: over-expression of TNF/NF-κB pathway cDNAs in HEK293 NF-κB reporter cells. To be noted: for Effect of over-expressed IKK-beta or NF-κB p65 on the compound's inhibition of the NF-κB reporter: transient over-expression, 1, 2 or 5 mM.
Experimental: as §1
Screening and Small Complementation: HEK293 NF-κB reporter cells were plated at 7000 cells/well in 384-well Greiner clear bottom plates using a Titertek Multidrop. Cells were incubated for 8 hours before transfection of the cDNA libraries. […] Thirty minutes compound treatment, The Hydra was used again to mix two μL DNA with 8 ul of a premixed solution 61 μl 2m CaC12, 440 μH20 distributed into a 384-well intermediate plate. Then, 10 ul of a 2× Hepes Buffered Saline solution (HBS, pH 7.0) was mixed with the DNA and pipetted automatically for 5 seconds followed by 10 μL addition of the transfection solution to HEK293 NF-κB reporter cells. After transfected plates of cells were incubated at 37° C. for 16 hours, Bright-Glo was added to each well using a twelve-head multi-channel pipettor, incubated for five minutes then read on the LJL Acquest in luminescence mode. Controls used in this experiment were limited to p65, IKK-beta, NIK and IKK-alpha. Additionally, retroviral vectors encoding firefly luciferase alone were plated in 384-wells and transfected into wild-type HEK293 cells to determine transfection efficiency and CVs.
as §2

Like-named read-outs stand apart in the source and are kept apart here.

On to TNF-alpha, for which the “Induction of NF-κB reporter luciferase” value is recorded as “inducible” with NF-κB [1] (dose-response, 2 to 24 hours) and “inducible” in the assay on NF-κB [2] (HEK293 reporter cells, dose-response, 2 to 24 hours).
For the compound `O=C(O)c1ccccc1O` [Salicylate, salicylic acid], the “Block of TNF induction of NF-κB reporter” value in the assay with NF-κB [1] (TNF-alpha 10 ng/ml, 1, 2 or 5 mM salicylate) is “block TNF induction of NF-κB”; in the assay on NF-κB [2] (HEK293 reporter cells, TNF-alpha 10 ng/mL, 1, 2 or 5 mM sodium salicylate), “block TNF induction of NF-κB”. In addition, the “Effect of over-expressed IKK-beta or NF-κB p65 on the compound's inhibition of the NF-κB reporter” value in the assay on NF-κB [3] is reported as “over-expression of cDNA encoding human IKK-beta diminished the inhibitory effects”; with NF-κB [3] (listed as salicyclic acid), “over-expression of IKK-beta, but not NF-κB p65, could titrate out the effect”; in the assay with NF-κB [4], “over-expression of cDNA encoding human IKK-beta diminished the inhibitory effects”; in the assay on NF-κB [4] (listed as salicyclic acid), “over-expression of IKK-beta, but not NF-κB p65, could titrate out the effect”.
In the case of `CC(=O)c1c(O)c(C)c(O)c(Cc2c(O)c3c(c(C(=O)/C=C/c4ccccc4)c2O)OC(C)(C)C=C3)c1O` [Rottlerin], the IC50 in the assay on NF-κB [2] (Homo sapiens, HEK293, read-out: IC50 concentration, NF-κB reporter gene assay) was found to be 0.05 µM. Moreover, in the assay on NF-κB [4] (compound at its IC50 concentration, 24 hours), the “Block of NF-κB reporter signals induced by TNF or over-expressed TNFR, TRAF2, NIK, IKK-beta, IKK-alpha, p65” value is “able to block signals induced by TNF, TNFR, but not TRAF2”.
